Data: patent US10487093B2, “Heterocyclic compounds, in particular 2-oxo-4,4,5,5,6,6,7,7-octahydrobenzoxazole derivatives, and their use as antibacterial compounds” (priority 2016, dated 2019)
Values after ≈ are worked out from the molar mass of the structure shown. Like-named read-outs stand apart in the source and are kept apart here.

How the values were obtained:
Type in all cases: cell-based
[1] = tested on: Haemophilus influenzae ATCC 49247; assay: MIC, broth microdilution (CLSI) versus planktonic bacteria; conditions: ATCC49247; Haemophilus influenzae ATCC 49247; 16-20 h; mode of three independent experiments; read-out: MIC, Hi ATCC 49247
[2] = tested on: Staphylococcus aureus ATCC 29213; assay: as above; conditions: ATCC29213; Staphylococcus aureus ATCC 29213; 16-20 h; mode of three independent experiments; read-out: MIC, Sa ATCC 29213
[3] = tested on: Clostridium difficile ATCC 700057; assay: MIC against anaerobes, agar dilution (CLSI), reference strain; conditions: Clostridioides difficile, ATCC700057, 48 h, read-out: MIC, C. difficile ATCC 700057
[4] = tested on: Bacteroides fragilis ATCC 25285; assay: as above; conditions: ATCC25285, agar dilution, Brucella blood agar, 35° C., 48 h, anaerobic conditions, read-out: MIC, B. fragilis ATCC 25285
[5] = tested on: Bacteroides thetaiotaomicron ATCC 29741; assay: microbe, parasite or virus in culture; conditions: ATCC29741, agar dilution, Brucella blood agar, 35° C., 48 h, anaerobic conditions, read-out: MIC, B. thetaiotaomicron ATCC
[6] = tested on: strains of Clostridium perfringens; assay: microbe, parasite or virus in culture
[7] = tested on: strains of Finegoldia magna; assay: MIC against anaerobes, agar dilution (CLSI), clinical isolates; conditions: Finegoldia magna, read-out: MIC
[8] = tested on: strains of Parvimonas micra; assay: as above
[9] = tested on: strains of Peptoniphilus harei; assay: as above; conditions: Peptoniphilus harei, read-out: MIC
[10] = tested on: strains of Peptostreptococcus anaerobius; assay: as above
[11] = tested on: strains of Propionibacterium acnes; assay: as above; conditions: Cutibacterium acnes
[12] = tested on: strains of Bacteroides fragilis; assay: as above
[13] = tested on: strains of Bacteroides thetaiotaomicron; assay: microbe, parasite or virus in culture
[14] = tested on: strains of Prevotella bivia; assay: MIC against anaerobes, agar dilution (CLSI), clinical isolates
[15] = tested on: strains of Prevotella melaninogenica; assay: as above

COc1ccc2ncc(=O)n(CCN[C@@H]3CC[C@@H]4[C@@H](C3)OC(=O)N4c3ccc4c(n3)NC(=O)CO4)c2c1 [Compound 21, 1-(2-{[(3aR,6R,7aR)-2-oxo-3-{3-oxo-2H,3H,4H-pyrido[3,2-b][1,4]oxazin-6-yl}-octahydro-1,3-benzoxazol-6-yl]amino}ethyl)-7-methoxy-1,2-dihydroquinoxalin-2-one]
MIC [1]: < 1 µg/mL
MIC [2]: < 1 µg/mL
MIC [3]: < 1 µg/mL
MIC [4]: < 1 µg/mL
MIC [5]: < 1 µg/mL
MIC ([6]; Clostridium perfringens strain 1): < 1 µg/mL
MIC ([6]; Clostridium perfringens strain 2): < 1 µg/mL
MIC ([6]; Clostridium perfringens strain 3): < 1 µg/mL
MIC ([6]; Clostridium perfringens strain 4): < 1 µg/mL
MIC ([6]; Clostridium perfringens strain 5): < 1 µg/mL
MIC ([6]; Clostridium perfringens strain 6): < 1 µg/mL
MIC ([6]; Clostridium perfringens strain 7): < 1 µg/mL
MIC ([6]; Clostridium perfringens strain 8): < 1 µg/mL
MIC ([6]; Clostridium perfringens strain 9): < 1 µg/mL
MIC ([6]; Clostridium perfringens strain 10): < 1 µg/mL
MIC ([6]; Clostridium perfringens strain 11): < 1 µg/mL
MIC ([7]; Finegoldia magna strain 1): < 1 µg/mL
MIC ([7]; Finegoldia magna strain 2): < 1 µg/mL
MIC ([7]; Finegoldia magna strain 3): < 1 µg/mL
MIC ([7]; Finegoldia magna strain 4): < 1 µg/mL
MIC ([7]; Finegoldia magna strain 5): < 1 µg/mL
MIC ([7]; Finegoldia magna strain 6): < 1 µg/mL
MIC ([7]; Finegoldia magna strain 7): < 1 µg/mL
MIC ([7]; Finegoldia magna strain 8): < 1 µg/mL
MIC ([7]; Finegoldia magna strain 9): < 1 µg/mL
MIC ([7]; Finegoldia magna strain 10): < 1 µg/mL
MIC ([7]; Finegoldia magna strain 11): < 1 µg/mL
MIC ([7]; Finegoldia magna strain 12): < 1 µg/mL
MIC ([8]; Parvimonas micra strain 1): < 1 µg/mL
MIC ([8]; Parvimonas micra strain 2): < 1 µg/mL
MIC ([8]; Parvimonas micra strain 3): < 1 µg/mL
MIC ([8]; Parvimonas micra strain 4): 1 to 4 µg/mL (≈ 1.97 to 7.9 µM)
MIC ([8]; Parvimonas micra strain 5): < 1 µg/mL
MIC ([8]; Parvimonas micra strain 6): < 1 µg/mL
MIC ([8]; Parvimonas micra strain 7): < 1 µg/mL
MIC ([8]; Parvimonas micra strain 8): < 1 µg/mL
MIC ([8]; Parvimonas micra strain 9): < 1 µg/mL
MIC ([8]; Parvimonas micra strain 10): < 1 µg/mL
MIC ([8]; Parvimonas micra strain 11): < 1 µg/mL
MIC ([8]; Parvimonas micra strain 12): < 1 µg/mL
MIC ([9]; Peptoniphilus harei strain 1): < 1 µg/mL
MIC ([9]; Peptoniphilus harei strain 2): < 1 µg/mL
MIC ([9]; Peptoniphilus harei strain 3): < 1 µg/mL
MIC ([9]; Peptoniphilus harei strain 4): < 1 µg/mL
MIC ([9]; Peptoniphilus harei strain 5): < 1 µg/mL
MIC ([9]; Peptoniphilus harei strain 6): < 1 µg/mL
MIC ([9]; Peptoniphilus harei strain 7): < 1 µg/mL
MIC ([9]; Peptoniphilus harei strain 8): < 1 µg/mL
MIC ([9]; Peptoniphilus harei strain 9): < 1 µg/mL
MIC ([9]; Peptoniphilus harei strain 10): < 1 µg/mL
MIC ([9]; Peptoniphilus harei strain 11): < 1 µg/mL
MIC ([9]; Peptoniphilus harei strain 12): < 1 µg/mL
MIC ([10]; Peptostreptococcus anaerobius strain 1): < 1 µg/mL
MIC ([10]; Peptostreptococcus anaerobius strain 2): < 1 µg/mL
MIC ([10]; Peptostreptococcus anaerobius strain 3): < 1 µg/mL
MIC ([10]; Peptostreptococcus anaerobius strain 4): < 1 µg/mL
MIC ([10]; Peptostreptococcus anaerobius strain 5): < 1 µg/mL
MIC ([10]; Peptostreptococcus anaerobius strain 6): < 1 µg/mL
MIC ([10]; Peptostreptococcus anaerobius strain 7): < 1 µg/mL
MIC ([10]; Peptostreptococcus anaerobius strain 8): < 1 µg/mL
MIC ([10]; Peptostreptococcus anaerobius strain 9): < 1 µg/mL
MIC ([10]; Peptostreptococcus anaerobius strain 10): < 1 µg/mL
MIC ([11]; Propionibacterium acnes strain 1): < 1 µg/mL
MIC ([11]; Propionibacterium acnes strain 2): < 1 µg/mL
MIC ([11]; Propionibacterium acnes strain 3): < 1 µg/mL
MIC ([11]; Propionibacterium acnes strain 4): < 1 µg/mL
MIC ([11]; Propionibacterium acnes strain 5): < 1 µg/mL
MIC ([11]; Propionibacterium acnes strain 6): < 1 µg/mL
MIC ([11]; Propionibacterium acnes strain 7): < 1 µg/mL
MIC ([11]; Propionibacterium acnes strain 8): < 1 µg/mL
MIC ([11]; Propionibacterium acnes strain 9): < 1 µg/mL
MIC ([11]; Propionibacterium acnes strain 10): < 1 µg/mL
MIC ([11]; Propionibacterium acnes strain 11): < 1 µg/mL
MIC ([11]; Propionibacterium acnes strain 12): < 1 µg/mL
MIC ([12]; Bacteroides fragilis strain 1): 1 to 4 µg/mL (≈ 1.97 to 7.9 µM)
MIC ([12]; Bacteroides fragilis strain 2): < 1 µg/mL
MIC ([12]; Bacteroides fragilis strain 3): < 1 µg/mL
MIC ([12]; Bacteroides fragilis strain 4): < 1 µg/mL
MIC ([12]; Bacteroides fragilis strain 5): < 1 µg/mL
MIC ([12]; Bacteroides fragilis strain 6): < 1 µg/mL
MIC ([12]; Bacteroides fragilis strain 7): < 1 µg/mL
MIC ([12]; Bacteroides fragilis strain 8): < 1 µg/mL
MIC ([12]; Bacteroides fragilis strain 9): < 1 µg/mL
MIC ([12]; Bacteroides fragilis strain 10): < 1 µg/mL
MIC ([12]; Bacteroides fragilis strain 11): < 1 µg/mL
MIC ([12]; Bacteroides fragilis strain 12): < 1 µg/mL
MIC ([13]; Bacteroides thetaiotaomicron strain 1, read-out: MIC): < 1 µg/mL
MIC ([13]; Bacteroides thetaiotaomicron strain 2, read-out: MIC): < 1 µg/mL
MIC ([13]; Bacteroides thetaiotaomicron strain 3, read-out: MIC): < 1 µg/mL
MIC ([13]; Bacteroides thetaiotaomicron strain 4, read-out: MIC): < 1 µg/mL
MIC ([13]; Bacteroides thetaiotaomicron strain 5, read-out: MIC): < 1 µg/mL
MIC ([13]; Bacteroides thetaiotaomicron strain 6, read-out: MIC): < 1 µg/mL
MIC ([13]; Bacteroides thetaiotaomicron strain 7, read-out: MIC): < 1 µg/mL
MIC ([13]; Bacteroides thetaiotaomicron strain 8, read-out: MIC): < 1 µg/mL
MIC ([13]; Bacteroides thetaiotaomicron strain 9, read-out: MIC): < 1 µg/mL
MIC ([13]; Bacteroides thetaiotaomicron strain 10, read-out: MIC): < 1 µg/mL
MIC ([13]; Bacteroides thetaiotaomicron strain 11, read-out: MIC): 1 to 4 µg/mL (≈ 1.97 to 7.9 µM)
MIC ([14]; Prevotella bivia strain 1): < 1 µg/mL
MIC ([14]; Prevotella bivia strain 2): < 1 µg/mL
MIC ([14]; Prevotella bivia strain 3): < 1 µg/mL
MIC ([14]; Prevotella bivia strain 4): < 1 µg/mL
MIC ([14]; Prevotella bivia strain 5): < 1 µg/mL
MIC ([14]; Prevotella bivia strain 6): < 1 µg/mL
MIC ([14]; Prevotella bivia strain 7): < 1 µg/mL
MIC ([14]; Prevotella bivia strain 8): < 1 µg/mL
MIC ([14]; Prevotella bivia strain 9): < 1 µg/mL
MIC ([14]; Prevotella bivia strain 10): < 1 µg/mL
MIC ([15]; Prevotella melaninogenica strain 1): < 1 µg/mL
MIC ([15]; Prevotella melaninogenica strain 2): < 1 µg/mL
MIC ([15]; Prevotella melaninogenica strain 3): < 1 µg/mL
MIC ([15]; Prevotella melaninogenica strain 4): < 1 µg/mL
MIC ([15]; Prevotella melaninogenica strain 5): < 1 µg/mL
MIC ([15]; Prevotella melaninogenica strain 6): < 1 µg/mL
MIC ([15]; Prevotella melaninogenica strain 7): < 1 µg/mL
MIC ([15]; Prevotella melaninogenica strain 8): < 1 µg/mL
MIC ([15]; Prevotella melaninogenica strain 9): < 1 µg/mL
MIC ([15]; Prevotella melaninogenica strain 10): < 1 µg/mL
MIC ([15]; Prevotella melaninogenica strain 11): < 1 µg/mL
